Measurements reported in patent US20240002419A1, “RADIATION-ACTIVATED TETRAVALENT PLATINUM COMPLEX AND USE THEREOF” (priority 2020, published 2024).

Assay: Yield of reduced metal compounds under X-ray irradiation
Assay type: physicochemical
Settings: not given
Method: Operation steps of test: the compound was dissolved in ultrapure water to prepare a 100 μM metal compound solution, and oxygen gas in the solution was removed by bubbling nitrogen gas for 15 minutes. […] Finally, the remaining amount of raw material was measured, the disappeared concentration of the reactant was calculated, and the radiation yield was calculated (radiation yield=disappeared concentration of reactant/radiation dose).

For `[Cl-].[Cl-].[Mg+2]` [Compound 4, magnesium chloride], which “Yield (radiation yield = disappeared concentration of reactant/radiation dose)” value is on record?
The value was “(No metal cation reduction”.

With `O=S(=O)([O-])[O-].[Cu+2]` [Compound 13, copper sulfate] as the compound, how does the “Yield (radiation yield = disappeared concentration of reactant/radiation dose)” value read?
The value was 209 nM/Gy.

Which “Yield (radiation yield = disappeared concentration of reactant/radiation dose)” value does the source give for `O=P([O-])([O-])O.[K+].[K+]` [Compound 3, dipotassium hydrogen phosphate] here?
Its value is “(No metal cation reduction”.

Same assay, conditions: 100 μM in deoxygenated ultrapure water, X-rays 0-1000 Gy, 4 Gy/min

Which “Yield (radiation yield = disappeared concentration of reactant/radiation dose)” value does the source give for `O=[N+]([O-])[O-].[Ag+]` [Compound 14, silver nitrate] here?
Its value is 576 nM/Gy.

Which “Yield (radiation yield = disappeared concentration of reactant/radiation dose)” value does the source give for `C1=Cc2cc3ccc(cc4nc(cc5ccc(cc1n2)[nH]5)C=C4)[nH]3.[Fe]` [Compound 16, iron porphyrin] here?
The value was 598 nM/Gy.

Which “Yield (radiation yield = disappeared concentration of reactant/radiation dose)” value does the source give for `[NH2][Pt]([NH2])([Cl])([Cl])([O]C(=O)CCCC[P+](c1ccccc1)(c1ccccc1)c1ccccc1)[O]C(=O)CCCC[P+](c1ccccc1)(c1ccccc1)c1ccccc1` [Compound 18] here?
Its value is 427 nM/Gy.

For `[K+].[K+].[O]=[Cr](=[O])([O-])[O][Cr](=[O])(=[O])[O-]` [Compound 9, potassium dichromate], which “Yield (radiation yield = disappeared concentration of reactant/radiation dose)” value is on record?
The value was 87 nM/Gy.

For `[Cl][Fe]([Cl])[Cl]` [Compound 5, ferric chloride], which “Yield (radiation yield = disappeared concentration of reactant/radiation dose)” value is on record?
The value was 578 nM/Gy.

With `[Cl-].[Na+]` [Compound 1, sodium chloride] as the compound, how does the “Yield (radiation yield = disappeared concentration of reactant/radiation dose)” value read?
The value was “(No metal cation reduction”.

With `[Cl-].[K+]` [Compound 2, potassium chloride] as the compound, how does the “Yield (radiation yield = disappeared concentration of reactant/radiation dose)” value read?
Its value is “(No metal cation reduction”.

Which “Yield (radiation yield = disappeared concentration of reactant/radiation dose)” value does the source give for `[Cl][Ni][Cl]` [Compound 10, nickel chloride] here?
The value was 347 nM/Gy.

Assay: Radiation-driven (γ-ray) release of Pt(II) drugs from Pt(IV) complexes, UPLC-MS and NMR
Assay type: physicochemical
Settings: γ-rays (60Co, 40 kGy), D2O, deoxygenated
From the text: To explore the generalizability of this strategy, we further conducted the same study on two other platinum-based drugs commonly used globally, carboplatin and cisplatin.

Which “Product released after irradiation” value does the source give for `N.N.O=C(O)CCC(=O)[O][Pt]([Cl])([Cl])[O]C(=O)CCC(=O)O` [cisPt(IV)-(Suc)2] here?
Its value is “release the corresponding Pt(II) drugs”.

Which “Product released after irradiation” value does the source give for `NC1CCCCC1N.O=C(O)CCC(=O)[O][Pt]1([O]C(=O)CCC(=O)O)[O]C(=O)C(=O)[O]1` [oxaliPt(IV)-(Suc)2] here?
The value was “released product was oxaliplatin”.

Which “Product released after irradiation” value does the source give for `[NH2][Pt]1([NH2])([O]C(=O)CCC(=O)O)([O]C(=O)CCC(=O)O)[O]C(=O)C2(CCC2)C(=O)[O]1` [carboPt(IV)-(Suc)2] here?
Its value is “release the corresponding Pt(II) drugs”.
